The subject of series [1] is Mus musculus. Briefly: Analgesic activity in ddY mouse assessed as protection against acetic acid-induced writhing at 30 mg/kg, sc relative to control. The class given is functional. In general terms: Writhing tests count abdominal constrictions after an irritant is injected.
The nature of series [2]: Plasma concentration in ddY mouse at 30 mg/kg, sc. Also: time not given here. The class given is ADME, organism-based. The conditions noted are these: in vivo.
A short description of series [3]: Drug concentration in ddY mouse brain at 30 mg/kg, sc. Also: time not given here. Conditions: in vivo, read-out: Ct. The class given is ADME, organism-based.
Series [4] has as its target T1, Mu-type opioid receptor (Homo sapiens, UniProt P35372). Description: Agonist activity at human Gi/G0-coupled mu opioid receptor expressed in human U2OS cells co-expressing EA-tagged beta-arrestin2 assessed as beta-arrestin 2 recruitment by PathHunter assay. The class given is cell-based. Background: Activated receptors often draw arrestin, which recruitment assays turn into a signal.

Series [5] relates to Mus musculus. Briefly: Analgesic activity in sc dosed ddY mouse assessed as protection against acetic acid-induced writhing. It counts as functional.
The subject of series [6] is Mus musculus. Description: Analgesic activity in sc dosed ddY mouse assessed as tail flicking. It counts as functional.
Series [7] relates to Mus musculus. Briefly: Analgesic activity in ddY mouse assessed as tail flicking at 30 mg/kg, sc relative to control. It counts as functional.
Series [8] in a line: Toxicity in sc dosed ddY mouse assessed as effect on locomotor activity. The class given is organism-based. The conditions noted are these: in vivo.
Series [9] deals with Mus musculus. Description: Analgesic activity in ddY mouse assessed as protection against acetic acid-induced writhing at 3 mg/kg, sc relative to control. The class given is functional.
For series [10], the system named is Mus musculus. Description: Analgesic activity in ddY mouse assessed as tail flicking at 300 mg/kg, sc. The class given is functional, organism-based.
A short description of series [11]: Toxicity in ddY mouse assessed as hyperactivity at 10 mg/kg, sc. The conditions noted are these: in vivo. The class given is organism-based.
A short description of series [12]: Drug concentration in ddY mouse brain at 10 mg/kg. Also: time not given here. The class given is ADME, organism-based. The conditions noted are these: in vivo, read-out: Ct.
Series [13] concerns the target T1, Mu-type opioid receptor. Description: Binding affinity to mu opioid receptor (unknown origin).
A short description of series [14]: Apparent clearance in mouse at 10 mg/kg. It counts as ADME, organism-based. The conditions noted are these: in vivo.
The nature of series [15]: Clearance in mouse at 10 mg/kg. It counts as ADME, organism-based. Conditions: in vivo.
Series [16] in a line: Metabolic stability in mouse cytochrome P450 assessed as parent compound remaining. Also: time not given here. It counts as ADME.
Series [17] in a line: Oral bioavailability in mouse at 10 mg/kg. It counts as ADME, organism-based. The conditions noted are these: in vivo.
Another series concerns Cytochrome P450. Briefly: Metabolic stability in human cytochrome P450 assessed as parent compound remaining. Also: time not given here. It counts as ADME, protein assay.
Series [18] is described as follows: Half life in mouse at 10 mg/kg. It counts as ADME, organism-based. Conditions: in vivo.
Series [19] can be described thus: Permeability of compound by PAMPA. It counts as ADME. Background: In PAMPA a lipid-coated filter parts donor from acceptor wells.
Series [20] can be described thus: Protein binding in mouse. It counts as ADME, organism-based. Conditions: in vivo, read-out: PB (converted).
The nature of series [21]: Lipophilicity, log D of compound. It counts as physicochemical. The conditions noted are these: octanol/water.

Data on 19 compounds can be found in ChEMBL document CHEMBL4732147, “A novel [5.2.1]bicyclic amine is a potent analgesic without µ opioid activity” (Bioorg Med Chem Lett, 2021).

Active and inactive are the calls of the source. The rule behind the calls is not given here.

T1 sequence (P35372 whole entry): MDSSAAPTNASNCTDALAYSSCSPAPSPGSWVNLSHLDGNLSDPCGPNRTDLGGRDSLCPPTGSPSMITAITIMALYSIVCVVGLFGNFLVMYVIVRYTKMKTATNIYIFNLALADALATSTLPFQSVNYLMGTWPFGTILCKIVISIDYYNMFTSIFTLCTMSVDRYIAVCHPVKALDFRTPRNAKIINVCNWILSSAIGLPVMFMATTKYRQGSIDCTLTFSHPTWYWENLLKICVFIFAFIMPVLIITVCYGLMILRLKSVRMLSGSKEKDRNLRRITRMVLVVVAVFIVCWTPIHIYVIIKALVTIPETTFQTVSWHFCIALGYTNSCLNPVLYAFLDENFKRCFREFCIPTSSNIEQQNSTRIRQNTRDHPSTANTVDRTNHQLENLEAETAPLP

Take `CN1Cc2c(O)cccc2CN2CC[C@@]1(c1ccccc1)C2`: in the series with Mus musculus [1], the Activity came out at 56%. In addition, the concentration is 1.9 µM in series [2] and 18.9 µM in series [3]. Besides, the EC50 on Mu-type opioid receptor [4] is greater than 20 µM. Moreover, in the series with Mus musculus [5], the ED50 was less than 30 mg/kg.

Consider `CC(=O)N1Cc2ccccc2CN2CC[C@@]1(c1ccccc1)C2`, for which the concentration in series [2] is 7.8 µM; in series [3] it was 6.3 µM. Also, on Mu-type opioid receptor [4], the concentration giving a half-maximal response (EC50) is greater than 20 µM. Moreover, the ED50 in the series on Mus musculus [5] is 31 mg/kg; in the series on Mus musculus [6] it was greater than 30 mg/kg. In the series on Mus musculus [7], the MPE is on record as 4.9%.

Consider `c1ccc([C@@]23CCN(Cc4ccccc4CN2)C3)cc1`, for which the Activity with Mus musculus [1] was determined as 72%. Further, the concentration in series [2] was found to be 2.2 µM; in series [3], 49.2 µM. Also, at Mu-type opioid receptor [4], the EC50 was greater than 20 µM. Also, the 50% effective dose (ED50) was less than 30 mg/kg with Mus musculus [5] and greater than 30 mg/kg in the series with Mus musculus [6]. Besides, the MPE in the series on Mus musculus [7] is on record as 19%.

For the compound `CCC(=O)N1Cc2ccccc2CN2CC[C@@]1(c1ccccc1)C2`, the Activity in the series with Mus musculus [1] came to 87%. In addition, the results for the concentration in series [2] and in [3] were 5 µM and 8.4 µM, respectively. Also, the 50% effective concentration (EC50) on Mu-type opioid receptor [4] is greater than 20 µM. For the same compound, in the series on Mus musculus [5], the ED50 is no less than 30 mg/kg.

Turning to `CN1Cc2cc(O)ccc2CN2CC[C@@]1(c1ccccc1)C2`, the ID50 in series [8] worked out at 5.2 mg/kg. The concentration in series [2] came out at 0.74 µM; in series [3] it was 8.33 µM. Moreover, the concentration giving a half-maximal response (EC50) on Mu-type opioid receptor [4] was greater than 20 µM. In addition, the median effective dose (ED50) in the series on Mus musculus [5] was determined as 4.6 mg/kg; in the series with Mus musculus [6] it was 6.2 mg/kg.

Regarding `COc1ccc2c(c1)CN(C)[C@@]1(c3ccccc3)CCN(C2)C1`, in series [8], the ID50 came out at 14 mg/kg. Further, the concentration in series [2] worked out at 0.73 µM; in [3], 6.9 µM. Further, the 50% effective concentration (EC50) at Mu-type opioid receptor [4] is greater than 20 µM. Besides, the 50% effective dose (ED50) in the series on Mus musculus [5] came out at 11 mg/kg; with Mus musculus [6], 18 mg/kg.

As to `CN(C)C(=O)CN1Cc2ccccc2CN2CC[C@@]1(c1ccccc1)C2`, the Activity in the series with Mus musculus [1] was 52%. Further, the concentration amounted to 4 µM in series [2] and 5.3 µM in series [3]. For the same compound, the 50% effective concentration (EC50) on Mu-type opioid receptor [4] is greater than 20 µM. The ED50 in the series with Mus musculus [5] is greater than 30 mg/kg.

Turning to `COc1ccc2c(c1)CN1CC[C@@](c3ccccc3)(C1)N(C)C2`, in the series on Mus musculus [1], the Activity was 59%. The concentration in series [2] amounted to 2.2 µM; in [3], 24.8 µM. In addition, the EC50 at Mu-type opioid receptor [4] is greater than 20 µM. Also, the median effective dose (ED50) in the series with Mus musculus [5] is less than 30 mg/kg; with Mus musculus [6] it was greater than 30 mg/kg. The MPE in the series on Mus musculus [7] came out at 36%.

Turning to `CCN1Cc2ccccc2CN2CC[C@@]1(c1ccccc1)C2`, in the series on Mus musculus [1], the Activity is listed as 100%. Moreover, the concentration is 1.8 µM in [2] and 33.3 µM in series [3]. For the same compound, the half-maximal effective concentration (EC50) on Mu-type opioid receptor [4] is 4 µM. Further, the values for the ED50 in the series on Mus musculus [5] and with Mus musculus [6] were less than 30 mg/kg and greater than 10 mg/kg, respectively. In addition, in the series with Mus musculus [7], the MPE was determined as 43%.

Take `O=C1N[C@]2(c3ccccc3)CCN(Cc3ccccc31)C2`: the Activity in the series on Mus musculus [1] is 23%. The concentration in series [2] is 3.5 µM; in series [3] it was 7.7 µM. In addition, the 50% effective dose (ED50) in the series with Mus musculus [5] was less than 30 mg/kg.

On to `COc1cccc2c1CN(C)[C@@]1(c3ccccc3)CCN(C2)C1`, for which the Activity with Mus musculus [1] is recorded as 9.2%. Moreover, the figures for the concentration in [2] and in [3] were 13.4 µM and 6.2 µM, respectively. For the same compound, the EC50 on Mu-type opioid receptor [4] is greater than 20 µM. Besides, in the series with Mus musculus [5], the ED50 was greater than 30 mg/kg.

For the compound `CCCN1Cc2ccccc2CN2CCC1(c1ccccc1)C2` (racemic), in the series on Mus musculus [9], the Activity came to 100%. In addition, the concentration giving a half-maximal response (EC50) at Mu-type opioid receptor [4] turned out to be 0.7 µM. In addition, the 50% effective dose (ED50) with Mus musculus [5] was less than 3 mg/kg.

For the compound `CN1Cc2cccc(O)c2CN2CC[C@@]1(c1ccccc1)C2`, the Activity in the series with Mus musculus [1] is recorded as 93%. Besides, the concentration stood at 0.77 µM in [2] and 13 µM in series [3]. For the same compound, at Mu-type opioid receptor [4], the concentration giving a half-maximal response (EC50) is greater than 20 µM. The ED50 is less than 30 mg/kg in the series with Mus musculus [5] and greater than 30 mg/kg in the series with Mus musculus [6]. The MPE with Mus musculus [7] is 6%.

As to `OCCN1Cc2ccccc2CN2CC[C@@]1(c1ccccc1)C2`, the ID50 in [8] amounted to 37 mg/kg. In addition, the concentration came to 2.7 µM in series [2] and 21.8 µM in series [3]. At Mu-type opioid receptor [4], the EC50 is greater than 20 µM. For the same compound, the 50% effective dose (ED50) is 18.2 mg/kg with Mus musculus [5] and greater than 30 mg/kg in the series with Mus musculus [6]. Further, the MPE in the series with Mus musculus [7] amounted to 18%.

Take `COc1cccc2c1CN1CC[C@@](c3ccccc3)(C1)N(C)C2`: the Activity with Mus musculus [1] stood at 100%. The ID50 in series [8] came to 19 mg/kg. The concentration amounted to 3.1 µM in series [2] and 31.1 µM in series [3]. In addition, the EC50 at Mu-type opioid receptor [4] is greater than 20 µM. Besides, the values for the ED50 with Mus musculus [5] and in the series with Mus musculus [6] were less than 30 mg/kg and 16 mg/kg, respectively.

Regarding `O=C1N[C@@]2(c3ccccc3)CCN(Cc3ccccc31)C2`, the Activity with Mus musculus [1] turned out to be 23%. The concentration in series [2] was 4.4 µM; in series [3] it was 11.2 µM. The ED50 with Mus musculus [5] is greater than 30 mg/kg. Moreover, in the series with Mus musculus [10], the outcome was inactive.

Turning to `CN1Cc2ccccc2CN2CC[C@]1(c1ccccc1)C2`, the Activity result in [11] was “Toxic”. In addition, the concentration in [12] is 15.6 µM; in series [2], 0.75 µM. Also, on Mu-type opioid receptor [4], the concentration giving a half-maximal response (EC50) was 3 µM. Besides, the figures for the median effective dose (ED50) in the series on Mus musculus [5] and in the series with Mus musculus [6] were 1 mg/kg and 1.7 mg/kg, respectively.

As for `CN1Cc2ccc(O)cc2CN2CC[C@@]1(c1ccccc1)C2`, in the series on Mus musculus [1], the Activity turned out to be 100%. The concentration worked out at 1.5 µM in [2] and 19.4 µM in series [3]. At Mu-type opioid receptor [4], the 50% effective concentration (EC50) came to 2.4 µM.

Consider `CN1Cc2ccccc2CN2CC[C@@]1(c1ccccc1)C2`, for which the affinity on Mu-type opioid receptor [13], expressed as Ki, was 1.33 µM. Moreover, in series [14], the apparent clearance CL/F turned out to be 264 mL/min/kg. Besides, the ID50 in series [8] worked out at 15 mg/kg. Besides, the clearance in [15] is 261 mL/min/kg. Besides, the figures for the concentration in [12] and in [2] were 16.3 µM and 0.7 µM, respectively. For the same compound, the values for the Stabilty (in series [16]; with Cytochrome P450) were 1% and 72%, respectively. This compound also had a bioavailability in series [17] of 55.2%. Further, on Mu-type opioid receptor [4], the EC50 is greater than 20 µM. In addition, the figures for the median effective dose (ED50) in the series with Mus musculus [5] and in the series on Mus musculus [6] were 2 mg/kg and 17 mg/kg, respectively. The half-life in series [18] is 1.06 h. Moreover, the permeability result in series [19] is reported as “Permeable”. For the same compound, the fraction unbound in [20] was 0.16. In addition, the logD in series [21] came to 3.

In general, EC50 refers to the concentration giving half of the maximal effect. As usually defined, the ED50 is the midpoint of the dose-response relation. Usually Ki stands for the equilibrium dissociation constant of an inhibitor or competing ligand from its target. As a reminder, the CL/F is clearance divided by bioavailability, as obtained after extravascular dosing. In general, clearance refers to the volume of plasma or blood freed of the substance per unit of time. A lower clearance goes with a low capacity for elimination. One may read the bioavailability as dose-corrected exposure relative to a reference, in per cent. Low readings indicate poor availability, high ones good availability. As usually defined, the half-life is how long it takes for the measured level to halve. One may read the logD as the decadic logarithm of the distribution of all forms, ionised or not, between an organic phase and buffer at a given pH. Read a low logD as lower lipophilicity.
